Assay results published in patent US6132944A, “Photographic element containing high dye-yield couplers” (Eastman Kodak Company, priority 1999, dated 2000).
Read-outs that look alike come from different tables or passages of the source. Blank lines part the entries; values can stand above or below the molecule they belong to.

How the values were obtained:
[1] = pKa by spectrophotometric titration in aqueous Triton X-100; type: physicochemical; details: for pKa (Sol. group): Table II; for pK1: first ionization, sulfonamide in conjugation with naphthalene; for pK2: second sulfonamide (in conjugation with the phenyl ring); for pKa: Table I
Method: In the following examples, the pKa values were determined by standard procedures using spectrophotometric titration of the compounds of interest. The spectrophotometric technique involves measuring the absorption spectra of the compound of interest in a range of buffer solutions. The absorption data (optical densities, ODobsd) can then be used to determine the corresponding pKa value(s) according to eq 1-3
ODobsd=ODHnA +ODHn-1A + (1)
=b[HnA]εHnA +b[Hn-1A]εHn-1A (2)
=b[total]fHnA εHnA +b[total]fHn-1A
Typically, the experimental constants (b and [total]) are combined with the extinction coefficient (ε) and expressed as the maximum optical density (ODmax) for a given species. Eq 3 then becomes,
=ODmaxHnA fHnA +ODmaxHn-1A fHn-1A (4)
The fraction of a given species (f) is a function of the pH and pKa values.
For example, for a system with one titratable proton eq 5-6,
Thus, the pKa and ODmax values can be determined from a set of XY pair data (pH, ODobsd) using a non linear least squares fit.
This technique relies on a difference in extinction coefficient between the species of interest at a given wavelength. This can be seen by inspection as a change in the absorption spectrum over a given pH range. In addition to this macroscopic data, (the experimental pKa values), the spectrophotometric technique can also provide microscopic information, i.e., information about the relationship between the individual titratable groups and the pKa values. In this manner, a pKa value may be attributed to titration of a particular group in a molecule, e.g., a solubilizing group.
The absorption spectra over a range of pH values and pKa values for the model sulfonamides such as Comp-11 and Comp-8 (defined for the examples hereinafter) as well as the coupler Comp-12 may be plotted. In model sulfonamide Comp-11 (pK 6.65), the optical density change resulting from ionization of the sulfonamide which is in conjugation with the naphthalene group may be pinpointed. Model sulfonamide Comp-8 comprises the entire solubilizing group pK1 7.03, pK2 10.00). […] Finally, in the spectrophotometric titration of the coupler Comp-12, the ionization of both sulfonamides in the solubilizing group as well as ionization of the coupling site pK1 6.85, pK2 9.85, pK3 10.84) can be seen.
In practice, a stock solution of the appropriate compound (1×10^-4 M) and Triton X-100 (1.2%) in water was prepared. The Triton X-100 (CAS Registry No. [9002-93-1], polyoxyethylene(10) isooctylcyclohexyl ether) was obtained from Aldrich Chemical Co. and used as received.
To 1.50 mL of the appropriate phosphate buffer (μ=0.75) were added 1.50 mL of the stock solution. The solution was agitated to ensure adequate mixing, and its absorption spectrum and pH were measured. A non linear least squares method was then used to fit the data to a one, two, or three pKa value model as appropriate.

[2] = Table II, cited from earlier work
[3] = sol group, aqueous Triton X-100

pKa (Sol. group) ([1]; aqueous Triton X-100): 6.8
pK1 [1]: 6.85
pK2 [1]: 9.85
pK3 ([1]; third ionization): 10.84
Structure (SMILES): CC(C)(C)C(=O)CC(=O)Nc1cc(NS(=O)(=O)c2ccc(NS(C)(=O)=O)c3ccccc23)ccc1Cl [Comp-12]

pKa [1, 3]: 13
Structure (SMILES): CCCCCCCCCCCCCCCCNS(=O)(=O)c1ccc(Cl)c(NC(=O)C(OC(=O)N(CCCC)c2ccc(C=C(C#N)c3nc4ccccc4o3)c(C)c2)C(=O)c2ccc(OC)cc2)c1 (stereo not drawn) [Comp-2]

pKa [1, 3]: 8.8
Structure (SMILES): Cc1cc(N(C(=O)OC(C(=O)Nc2cc(NS(=O)(=O)c3ccc(O)cc3)ccc2Cl)C(=O)C(C)(C)C)C2CCCC2)ccc1C=C(C#N)c1nc2cc(C(C)(C)CC(C)(C)C)ccc2o1 (stereo not drawn) [Comp-21]

pKa [1, 3]: 13
Structure (SMILES): CCCCCCCCCCCCCCCCNS(=O)(=O)c1ccc(Cl)c(NC(=O)C(OC(=O)N(CCCCCCCCCCCC)c2ccc(C=C(C#N)c3nc4ccccc4o3)c(C)c2)C(=O)c2ccc(OC)cc2)c1 (stereo not drawn) [Comp-3]

pKa [1, 3]: 6.1
Structure (SMILES): COc1ccc(C(=O)C(OC(=O)N(c2ccc(C=C(C#N)c3nc4cc(C(C)(C)CC(C)(C)C)ccc4o3)c(C)c2)C2CCCC2)C(=O)Nc2cc(NS(=O)(=O)c3ccccc3NS(C)(=O)=O)ccc2Cl)cc1 (stereo not drawn) [Inv-10]

pKa ([1]; inferred from Comp-5 and Comp-6): 8.8
Structure (SMILES): CCCN(C(=O)OC(C(=O)Nc1ccccc1OC)C(=O)c1cccc(NS(=O)(=O)c2ccc(C)cc2)c1)c1ccc(C=C(C#N)c2nc3c(C)cc(C)cc3s2)c(C)c1 (stereo not drawn) [Comp-4]

pKa [1, 3]: 7.9
Structure (SMILES): CCN(C(=O)OC(C(=O)Nc1cc(NS(=O)(=O)c2ccc(NS(C)(=O)=O)cc2)ccc1Cl)C(=O)c1ccc(OC)cc1)c1ccc(C=C(C#N)c2nc3cc(C(C)(C)CC(C)(C)C)ccc3o2)c(C)c1 (stereo not drawn) [Inv-7]

pKa [1, 3]: 6.7
Structure (SMILES): CCN(C(=O)OC(C(=O)Nc1cc(NS(=O)(=O)c2ccc(NS(C)(=O)=O)c3ccccc23)ccc1Cl)C(=O)c1ccc(OC)cc1)c1ccc(C=C(C#N)c2nc3cc(C(C)(C)CC(C)(C)C)ccc3o2)c(C)c1 (stereo not drawn) [Inv-5]

pKa [1, 3]: 8.7
Structure (SMILES): COc1ccc(C(=O)C(OC(=O)N(c2ccc(C=C(C#N)c3nc4cc(C(C)(C)CC(C)(C)C)ccc4o3)c(C)c2)C2CCCC2)C(=O)Nc2cc(NS(=O)(=O)c3ccc(O)cc3)ccc2Cl)cc1 (stereo not drawn) [Inv-3]

pKa [1, 3]: 7.2
Structure (SMILES): Cc1cc(N(C(=O)OC(C(=O)Nc2cc(NS(=O)(=O)c3ccc(O)c(NS(C)(=O)=O)c3)ccc2Cl)C(=O)C(C)(C)C)C2CCCC2)ccc1C=C(C#N)c1nc2cc(C(C)(C)CC(C)(C)C)ccc2o1 (stereo not drawn) [Inv-1]

pKa [1, 3]: 7.9
Structure (SMILES): Cc1cc(N(C(=O)OC(C(=O)Nc2cc(NS(=O)(=O)c3cccc(NS(C)(=O)=O)c3)ccc2Cl)C(=O)C(C)(C)C)C2CCCC2)ccc1C=C(C#N)c1nc2cc(C(C)(C)CC(C)(C)C)ccc2o1 (stereo not drawn) [Inv-9]

pKa [1, 3]: 8.9
Structure (SMILES): CCCCN(C(=O)OC(C(=O)Nc1ccccc1OC)C(=O)c1cccc(NS(=O)(=O)c2ccc(C)cc2)c1)c1ccc(C=C(C#N)c2nc3cc(C(C)(C)CC(C)(C)C)ccc3o2)c(C)c1 (stereo not drawn) [Comp-6]

pKa [1, 3]: 6.5
Structure (SMILES): CCN(C(=O)OC(C(=O)Nc1cc(NS(=O)(=O)c2c(NS(C)(=O)=O)ccc3ccccc23)ccc1Cl)C(=O)c1ccc(OC)cc1)c1ccc(C=C(C#N)c2nc3cc(C(C)(C)CC(C)(C)C)ccc3o2)c(C)c1 (stereo not drawn) [Inv-4]

pKa [1, 3]: 8.8
Structure (SMILES): CCCCCCCN(C(=O)OC(C(=O)Nc1ccccc1OC)C(=O)c1cccc(NS(=O)(=O)c2ccc(C)cc2)c1)c1ccc(C=C(C#N)c2nc3ccc(C)cc3o2)c(C)c1 (stereo not drawn) [Comp-5]

pKa [1, 3]: 6.1
Structure (SMILES): CCN(C(=O)OC(C(=O)Nc1cc(NS(=O)(=O)c2ccccc2NS(C)(=O)=O)ccc1Cl)C(=O)c1ccc(OC)cc1)c1ccc(C=C(C#N)c2nc3cc(C(C)(C)CC(C)(C)C)ccc3o2)c(C)c1 (stereo not drawn) [Inv-8]

pKa [1, 3]: 7.4
Structure (SMILES): Cc1cc(N(C(=O)OC(C(=O)Nc2cc(NS(=O)(=O)c3ccc(NS(C)(=O)=O)cc3O)ccc2Cl)C(=O)C(C)(C)C)C2CCCC2)ccc1C=C(C#N)c1nc2cc(C(C)(C)CC(C)(C)C)ccc2o1 (stereo not drawn) [Inv-6]

The next lines start with the molecule.

Structure (SMILES): CN(C)S(=O)(=O)c1ccc(NS(C)(=O)=O)c2ccccc12 [Comp-11]
pKa (Sol. group) ([1]; aqueous Triton X-100): 6.6
pK ([1]; sulfonamide in conjugation with the naphthalene group): 6.65

Structure (SMILES): CNS(=O)(=O)c1ccccc1 [Comp-18]
pKa (Sol. group) ([2]; in water (King)): 11.43

Structure (SMILES): CCCCCCCCCCCCCCCCS(=O)(=O)Nc1ccc(Cl)c(NC(C)=O)c1 [Comp-17]
pKa (Sol. group) ([1]; aqueous Triton X-100): 9.5

Structure (SMILES): CCCCCCCCCCCCCCCCS(=O)(=O)Nc1ccc(Cl)c(NC(=O)CC(=O)C(C)(C)C)c1 [Comp-16]
pKa (Sol. group) ([1]; aqueous Triton X-100): 9.4

Structure (SMILES): CS(=O)(=O)c1ccc(O)cc1 [Comp-7]
pKa (Sol. group) ([2]; in water (Bordwell and Cooper)): 7.8

Structure (SMILES): COc1ccccc1NC(=O)CC(=O)c1cccc(NS(=O)(=O)c2ccc(C)cc2)c1 [Comp-10]
pKa at the coupling site ([1]; Example 2): 10.3
pKa (Sol. group) ([1]; aqueous Triton X-100): 8.8

Structure (SMILES): CS(=O)(=O)Nc1ccc(S(=O)(=O)Nc2ccc(Cl)cc2)c2ccccc12 [Comp-8]
pK1 [1]: 7.03
pK2 [1]: 10.00

Structure (SMILES): CC(=O)c1cccc(NS(=O)(=O)c2ccc(C)cc2)c1 [Comp-9]
pKa (Sol. group) ([1]; aqueous Triton X-100): 8.7

Structure (SMILES): CC(=O)Nc1cc(NS(=O)(=O)c2ccc(O)cc2)ccc1Cl [Comp-20]
pKa (Sol. group) ([1]; aqueous Triton X-100): 8.1

Structure (SMILES): CCCCCCCCCCCCCCCCS(=O)(=O)Nc1ccc(Cl)c(NC(=O)C(OC(=O)N(CC)c2ccc(N=Nc3ccc(C(=O)OCCCCCCCCCCCC)cc3)cc2)C(=O)C(C)(C)C)c1 (stereo not drawn) [Comp-1]
pKa [1, 3]: 9.5

Structure (SMILES): CCCCCCCCCCCCCCCCNS(=O)(=O)c1ccccc1 [Comp-19]
pKa (Sol. group) ([1]; aqueous Triton X-100): 13.0
